Source: patent US10816493B2, “Electrical measurement method, electrical measurement device, and blood condition analysis system” (SONY CORPORATION, priority 2015, dated 2020)

Tested on: blood coagulation
Test: Permittivity measurement over time of blood samples with calcium chloride added (coagulation start-indicating parameter)
Type: cell-based
Description: Experimental Example 2 was performed to determine whether and how the results of measurement of an electrical characteristic differ between a case using a compound having an inhibitory effect on blood sedimentation and having no influence on the electrical characteristic parameter used for analysis and a case using a compound having an influence on the electrical characteristic parameter. In this experimental example, permittivity was used as an example of the electrical characteristic. In addition, a coagulation start-indicating parameter for use in blood coagulation analysis was focused on as an example of the electrical characteristic parameter for use in analysis. Furthermore, in Experimental Example 2, measurement was performed on blood samples containing citric acid added as an anticoagulant with calcium chloride added as a blood coagulation […].
Carboxymethyl dextran as an example of the blood sedimentation inhibitor was dissolved at a concentration of 10% w/v in PBS. The carboxymethyl dextran-containing PBS solution was added in an amount of 10% to a whole blood sample with a high blood sedimentation rate, so that a sample of Example 3 was obtained.
A control sample was prepared by adding a blood sedimentation inhibitor-free PBS in an amount of 10% to the same whole blood sample as in Example 3.
Betaine was dissolved at a concentration of 10% w/v in PBS. The resulting blood sedimentation inhibitor-containing PBS solution was added in an amount of 10% to a blood sample with sedimentation abnormalities, prepared by a method similar to that in Experimental Example 1, so that a sample of Comparative Example 3 was obtained.
A control sample was prepared by adding a blood sedimentation inhibitor-free PBS in an amount of 10% to a blood sample with sedimentation abnormalities, prepared by a method similar to that in Experimental Example 1.
The permittivity of 180 μL of each of the samples of Example 3, Control for Example, Comparative Example 3, and Control for Comparative Example, prepared as described above, was measured at a frequency of 1 MHz over time.

C[N+](C)(C)CC(=O)O [Comparative Example 3, Betaine]
analysis of blood coagulation start time using a parameter indicating the time at which coagulation started (10% w/v in PBS added in an amount of 10%, citric acid plus calcium chloride, permittivity at 1 MHz): impossible to extract any parameter indicating the coagulation start time | signal behavior compared with the control sample (10% w/v in PBS added in an amount of 10%, citric acid plus calcium chloride, permittivity at 1 MHz, FIGS. 6 and 7): completely different from that of the control sample | adverse effect on the analysis (usability as blood sedimentation inhibitor) (blood coagulation analysis based on permittivity): has an adverse effect on the analysis | inhibitory effect on blood sedimentation (in words) (suggested from results of Experimental Example 2): have an inhibitory effect on blood sedimentation
